US20220273590A1, “COMPOUNDS FOR PREVENTION AND TREATMENT OF POST-OPERATIVE COGNITIVE DYSFUNCTION” (ABREXA PHARMACEUTICALS, INC., priority 2019, published 2022)
Where “and” joins values, the source holds several entries; their conditions need not be identical. Equal entries are not always repeated. Where two headings read alike, the source gives them in different places.

Tests used:
[1] = Plasma levels of J147 after oral administration in Basis suspension; assay type: in vivo, Adult Wister Rats; details: oral 20 mg/kg in Basis suspension
Experimental: (§1) Plasma samples obtained during surgery in J147-treated rats and 3 control rats were measured for circulating levels of J147. Results of pharmacokinetic measures of both plasma and brain levels of J147 in rats following oral administration of J147 in basis suspension at 20 mg/kg and also following intravascular administration at 5 mg/kg are shown in Table 2A-C below. When taking the absence of an appropriate peak as zero, mean concentration is 0 ng/ml in controls, 3.103 ng/ml in acutely treated rats and 0.233 ng/ml in chronically treated rats. J147 levels in food were verified as well (467 mg/kg). […] During the first 10 days after surgery and individual housing, rats on the diet ate on average 20±1 g, which was similar to the 20±1 g in surgery with control food and 23±1 g in non-surgery controls, verifying the anticipated intake of 10 mg J147/rat/day and further supporting no preference or aversion for the diet food.
(§2) Tables 2A-2B. Pharmacokinetic Measures of Plasma and Brain Levels of J147 Formulated in Basis Suspension Administered Orally to Adult Wister Rats at 20mg/kg.

[2] = Plasma levels of J147 at the time of surgery; assay type: in vivo, Wistar rats; details: absence of an appropriate peak taken as zero
Experimental: Male Wistar rats (˜350 g) were randomly divided into 4 experimental groups; non-surgery; control abdominal surgery; surgery+acute J147 treatment (7 mg/rat by gavage, 4-5 hours before surgery); surgery+chronic J147 (500 mg/kg food, 1 week before surgery until the end of the study). Timed blood samples were collected. Days 9-11 post surgery, general behavior (Open field: OF) and cognitive performance (Novel Object/Novel Location Recognition: NOR/NLR; Morris Water Maze: MWM) were tested. Day 14, rats were sacrificed and blood and brain tissue were collected for further analyses. (Neuro)inflammation was examined by circulating cytokine levels and microglia activation in the brain.
One week before surgery, chronic treatment J147 treatment started and continued until the end of the experiment. The day of surgery, rats for acute treatment received their J147 (4-5 hours before surgery) by gavage, while the designated control rats received vehicle gavage. Rats were subjected to abdominal surgery, and allowed to recover. After that rats were housed individually. […] The first week post-surgery, rats were weighed daily and food intake was measured. […]
For chronic oral treatment, J147 was added to the food (Teklad 2018, Envigo) at a concentration of 500 mg/kg. […] After surgery food intake was measured daily during the last hour of the light phase. […]

[3] = Brain levels of J147 after oral administration in Basis suspension; assay type: in vivo, Adult Wister Rats; details: oral 20 mg/kg in Basis suspension, PO_B satellite
Experimental: as §1, §2
• All of the brain samples were added with […] by brain weight (g) to PBS volume (mL) ratio 1:3 for homogenization. • The actual concentration (ng/g) is the detected value (ng/mL) multiplied by 4. • BLOQ: Below limit of quantitation (LLOQ: 2 ng/g) • NA: not available

Work on COc1cccc(/C=N/N(C(=O)C(F)(F)F)c2ccc(C)cc2C)c1 [J147] yielded a concentration at 0.25 h ([1]; Wistar, rat, plasma, po, 20 mg/kg, 0.25 h, individual rats (Rat 10, 11, 12), read-out: Plasma Conc.) of 1.29 ng/mL, a concentration at 0.25 h ([1]; Wistar, rat, plasma, po, 20 mg/kg, 0.25 h, mean of rats, read-out: Plasma Conc. Mean) of 1.34 ng/mL and a concentration at 0.5 h ([1]; Wistar, rat, plasma, po, 20 mg/kg, 0.5 h, mean of rats, read-out: Plasma Conc. Mean) of 3.94 ng/mL. The concentration at 1 h ([1]; Wistar, rat, plasma, po, 20 mg/kg, 1 h, individual rats (Rat 10, 11, 12), read-out: Plasma Conc.) was 7.34 ng/mL, the concentration at 1 h ([1]; Wistar, rat, plasma, po, 20 mg/kg, 1 h, mean of rats, read-out: Plasma Conc. Mean) was 8.19 ng/mL and the concentration at 2 h ([1]; Wistar, rat, plasma, po, 20 mg/kg, 2 h, individual rats (Rat 10, 11, 12), read-out: Plasma Conc.) was 15.1 ng/mL. It also gave a concentration at 2 h ([1]; Wistar, rat, plasma, po, 20 mg/kg, 2 h, mean of rats, read-out: Plasma Conc. Mean) of 15.8 ng/mL, a concentration at 4 h ([1]; Wistar, rat, plasma, po, 20 mg/kg, 4 h, mean of rats, read-out: Plasma Conc. Mean) of 8.8 ng/mL and a concentration at 6 h ([1]; Wistar, rat, plasma, po, 20 mg/kg, 6 h, individual rats (Rat 10, 11, 12), read-out: Plasma Conc.) of 3.14 ng/mL. It also gave a concentration at 6 h ([1]; Wistar, rat, plasma, po, 20 mg/kg, 6 h, mean of rats, read-out: Plasma Conc. Mean) of 2.46 ng/mL, a concentration at 8 h ([1]; Wistar, rat, plasma, po, 20 mg/kg, 8 h, individual rats (Rat 10, 11, 12), read-out: Plasma Conc.) of 0.822 ng/mL and a concentration at 8 h ([1]; Wistar, rat, plasma, po, 20 mg/kg, 8 h, mean of rats, read-out: Plasma Conc. Mean) of 0.788 ng/mL. The “Plasma Conc.” value ([1]; 0.25 h, individual rats (Rat 10, 11, 12), 20 mg/kg) was “BLOQ and 1.38 ng/mL”, the “Plasma Conc.” value ([1]; 0.5 h, individual rats (Rat 10, 11, 12), 20 mg/kg) was 1.52 ng/mL and 5.77 ng/mL and 4.54 ng/mL and the “Plasma Conc.” value ([1]; 1 h, individual rats (Rat 10, 11, 12), 20 mg/kg) was 8.39 ng/mL and 8.83 ng/mL. The “Plasma Conc.” value ([1]; 2 h, individual rats (Rat 10, 11, 12), 20 mg/kg) was 16.9 ng/mL and 15.4 ng/mL, the “Plasma Conc.” value ([1]; 4 h, individual rats (Rat 10, 11, 12), 20 mg/kg) was 6.92 ng/mL and 6.35 ng/mL and 13.2 ng/mL and the “Plasma Conc.” value ([1]; 6 h, individual rats (Rat 10, 11, 12), 20 mg/kg) was 1.78 ng/mL and 2.47 ng/mL. For the same compound, the “Plasma Conc.” value ([1]; 8 h, individual rats (Rat 10, 11, 12), 20 mg/kg) was 0.654 ng/mL and 0.888 ng/mL, the “Plasma Conc.” value ([1]; 12 h, individual rats (Rat 10, 11, 12)) was “BLOQ” and the “Plasma Conc.” value ([1]; 16 h, individual rats (Rat 10, 11, 12)) was “BLOQ”. For the same compound, the “Plasma Conc.” value ([1]; 20 h, individual rats (Rat 10, 11, 12)) was “BLOQ”, the “Plasma Conc.” value ([1]; 24 h, individual rats (Rat 10, 11, 12)) was “BLOQ” and the “mean concentration of J147 in plasma during surgery” value ([2]; acute J147, 7 mg/rat by gavage 4-5 hours before surgery) was 3.103 ng/mL. For the same compound, the concentration at 1 week ([2]; male, Wistar, rat, plasma, oral, chronic J147, 500 mg/kg food from 1 week before surgery, read-out: mean concentration of J147 in plasma during surgery) was 0.233 ng/mL, the concentration at 0.25 h ([3]; Wistar, rat, brain homogenate, po, 20 mg/kg, brain homogenate 1:3, Group 1, Group 2, LLOQ 2 ng/g, read-out: Brain Detected Conc.) was 0.736 ng/mL and the concentration at 0.5 h ([3]; Wistar, rat, brain homogenate, po, 20 mg/kg, 0.5 h, brain homogenate 1:3, Group 1, Group 2, LLOQ 2 ng/g, read-out: Brain Detected Conc.) was 1.14 ng/mL. For the same compound, the concentration at 1 h ([3]; Wistar, rat, brain homogenate, po, 20 mg/kg, 1 h, brain homogenate 1:3, Group 1, Group 2, LLOQ 2 ng/g, read-out: Brain Detected Conc.) was 7.01 ng/mL, the concentration at 8 h ([3]; Wistar, rat, brain homogenate, po, 20 mg/kg, 8 h, brain homogenate 1:3, Group 1, Group 2, LLOQ 2 ng/g, read-out: Brain Detected Conc.) was 0.831 ng/mL and the concentration at 0.25 h ([3]; Wistar, rat, brain, po, 20 mg/kg, detected value multiplied by 4, Group 1, Group 2, read-out: Brain Actual Conc.) was 2.94 ng/g. It also gave a concentration at 0.5 h ([3]; Wistar, rat, brain, po, 20 mg/kg, 0.5 h, detected value multiplied by 4, Group 1, Group 2, read-out: Brain Actual Conc.) of 4.56 ng/g, a concentration at 0.5 h ([3]; Wistar, rat, brain, po, 20 mg/kg, 0.5 h, mean of Group 1 and 2, read-out: Brain Actual Conc. Mean) of 3.94 ng/g and a concentration at 1 h ([3]; Wistar, rat, brain, po, 20 mg/kg, 1 h, detected value multiplied by 4, Group 1, Group 2, read-out: Brain Actual Conc.) of 28 ng/g. It also gave a concentration at 1 h ([3]; Wistar, rat, brain, po, 20 mg/kg, 1 h, mean of Group 1 and 2, read-out: Brain Actual Conc. Mean) of 23.7 ng/g, a concentration at 2 h ([3]; Wistar, rat, brain, po, 20 mg/kg, 2 h, mean of Group 1 and 2, read-out: Brain Actual Conc. Mean) of 28 ng/g and a concentration at 4 h ([3]; Wistar, rat, brain, po, 20 mg/kg, 4 h, mean of Group 1 and 2, read-out: Brain Actual Conc. Mean) of 20.6 ng/g. For the same compound, the concentration at 8 h ([3]; Wistar, rat, brain, po, 20 mg/kg, 8 h, detected value multiplied by 4, Group 1, Group 2, read-out: Brain Actual Conc.) was 3.32 ng/g, the concentration at 8 h ([3]; Wistar, rat, brain, po, 20 mg/kg, 8 h, mean of Group 1 and 2, read-out: Brain Actual Conc. Mean) was 3.26 ng/g and the “Brain Detected Conc.” value ([3]; 0.5 h, brain homogenate 1:3, Group 1, Group 2, LLOQ 2 ng/g, 20 mg/kg) was 0.830 ng/mL. The “Brain Actual Conc.” value ([3]; 0.5 h, detected value multiplied by 4, Group 1, Group 2, 20 mg/kg) was 3.32 ng/g, the “Brain Detected Conc.” value ([3]; 1 h, brain homogenate 1:3, Group 1, Group 2, LLOQ 2 ng/g, 20 mg/kg) was 4.83 ng/mL and the “Brain Actual Conc.” value ([3]; 1 h, detected value multiplied by 4, Group 1, Group 2, 20 mg/kg) was 19.3 ng/g. The “Brain Detected Conc.” value ([3]; 8 h, brain homogenate 1:3, Group 1, Group 2, LLOQ 2 ng/g, 20 mg/kg) was 0.799 ng/mL, the “Brain Actual Conc.” value ([3]; 8 h, detected value multiplied by 4, Group 1, Group 2, 20 mg/kg) was 3.20 ng/g and the “Brain Detected Conc.” value ([3]; 12 h, brain homogenate 1:3, Group 1, Group 2, LLOQ 2 ng/g) was “BLOQ”. For the same compound, the “Brain Detected Conc.” value ([3]; 16 h, brain homogenate 1:3, Group 1, Group 2, LLOQ 2 ng/g) was “BLOQ”, the “Brain Detected Conc.” value ([3]; 20 h, brain homogenate 1:3, Group 1, Group 2, LLOQ 2 ng/g) was “BLOQ” and the “Brain Detected Conc.” value ([3]; 24 h, brain homogenate 1:3, Group 1, Group 2, LLOQ 2 ng/g) was “BLOQ”.
